The values below come from patent US8173645B2 (Takeda San Diego, Inc., priority 2007, dated 2012).

Where only a bound is given, the exact number is not on record here.

The test has as its target T1, glucokinase (GK), residues 12-465 of the human enzyme (Homo sapiens, UniProt P35557).
T1 construct: I.D. No. 1 corresponds to residues 12-465 of glucokinase; made in house; host or cells: E. coli DH10b-Tlr
T1 sequence (P35557 with tags, fused parts or gaps isoform P35557-2): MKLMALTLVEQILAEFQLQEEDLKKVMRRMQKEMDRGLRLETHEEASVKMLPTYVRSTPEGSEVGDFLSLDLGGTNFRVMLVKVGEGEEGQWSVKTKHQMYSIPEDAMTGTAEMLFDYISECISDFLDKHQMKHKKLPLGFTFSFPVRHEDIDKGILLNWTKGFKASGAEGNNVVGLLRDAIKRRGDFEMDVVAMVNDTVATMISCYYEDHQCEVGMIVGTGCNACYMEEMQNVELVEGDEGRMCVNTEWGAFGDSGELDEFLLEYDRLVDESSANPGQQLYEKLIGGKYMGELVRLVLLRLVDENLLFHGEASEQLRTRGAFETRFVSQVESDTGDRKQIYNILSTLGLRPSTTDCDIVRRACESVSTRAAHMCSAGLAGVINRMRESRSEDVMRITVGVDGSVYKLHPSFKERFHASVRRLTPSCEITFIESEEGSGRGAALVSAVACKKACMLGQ
The test is described as follows: Enzymatic glucokinase activity assay (KinaseGlo luminescence, ATP consumption). In kind it is biochemical. The following applies: 5 μM ATP, 5 mM Glucose; for EC50: GK activation, Kact = concentration giving 50% of the maximal increase in GK activity, read-out: pKact; for Emax: read-out: % ACTmax. The essentials: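 Activation measured as ATP consumption: residual ATP detected by KinaseGlo luminescence after 60 min at room temperature with 5 μM ATP and 5 mM glucose (Hepes pH 7.2, MgCl2, Brij35, DTT, 2% DMSO). Enzyme was recombinant FLAG-tagged protein from E. coli. Eleven-point twofold series were fitted nonlinearly for pKact and % ACTmax.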
On the technique in general: Kinase-Glo reads ATP consumption through a luciferase reaction.

The mark [1] stands for this setting: calculated maximal gain in GK enzyme activity at a saturating concentration of the compound.

For the compound `O=C(Nc1nccs1)[C@H](CC1CCCCC1)N1CCN(S(=O)(=O)c2ccc(-c3ccno3)s2)CC1=O` [Example 174, (S)-3-cyclohexyl-2-(4-(5-(isoxazol-5-yl)thiophen-2-ylsulfonyl)-2-oxopiperazin-1-yl)-N-(thiazol-2-yl)propanamide], the EC50 lay in the range of 1.58 to 2.51 µM. Besides, the Emax under setting [1] is not above 74%.
As to `O=C(Nc1nccs1)[C@H](CC1CCCCC1)N1CCN(S(=O)(=O)CC(F)(F)F)CC1=O` [Example 93, (S)-3-cyclohexyl-2-(2-oxo-4-(2,2,2-trifluoroethylsulfonyl)piperazin-1-yl)-N-(thiazol-2-yl)propanamide], the EC50 fell in the range of 1.58 to 2.51 µM. Under setting [1], the Emax is not below 119%.
For `O=C(Nc1nccs1)[C@H](CC1CCCCC1)N1CCN(S(=O)(=O)c2ccc(F)cc2)CC1=O` [Example 89, (S)-3-cyclohexyl-2-(4-(4-fluorophenylsulfonyl)-2-oxopiperazin-1-yl)-N-(thiazol-2-yl)propanamide] the same measures were 0.794 to 1.26 µM and 97.1 to 107%.
For `O=C(Nc1nccs1)[C@H](CC1CCCCC1)N1CCN(S(=O)(=O)c2c(Cl)nc3sccn23)CC1=O` [Example 164, (S)-2-(4-(6-chloroimidazo[2,1-b]thiazol-5-ylsulfonyl)-2-oxopiperazin-1-yl)-3-cyclohexyl-N-(thiazol-2-yl)propanamide] the same measures were not below 3.16 µM and 108 to 119%.
For `O=C(Nc1nccs1)[C@H](CC1CCCCC1)N1CCN(S(=O)(=O)c2ccc3c(c2)OCCO3)CC1=O` [Example 53, (S)-3-cyclohexyl-2-(4-(2,3-dihydrobenzo[b][1,4]dioxin-6-ylsulfonyl)-2-oxopiperazin-1-yl)-N-(thiazol-2-yl)propanamide] the same measures were 0.794 to 1.26 µM and 74.1 to 97%.
As to `O=C(Nc1nccs1)[C@H](CC1CCCCC1)N1CCN(S(=O)(=O)c2ccc3ccccc3c2)CC1=O` [Example 39, (S)-3-cyclohexyl-2-(4-(naphthalen-2-ylsulfonyl)-2-oxopiperazin-1-yl)-N-(thiazol-2-yl)propanamide], the EC50 lay in the range of 0.794 to 1.26 µM. Also, the Emax under setting [1] was not above 74%.
Regarding `O=C(Nc1nccs1)[C@H](CC1CCCCC1)N1CCN(S(=O)(=O)c2ccco2)CC1=O` [Example 108, (S)-3-cyclohexyl-2-(4-(furan-2-ylsulfonyl)-2-oxopiperazin-1-yl)-N-(thiazol-2-yl)propanamide], the EC50 is not above 0.631 µM. For the same compound, the Emax under setting [1] was 74.1 to 97%.
On to `O=C(Nc1nccs1)[C@H](CC1CCCCC1)N1CCN(S(=O)(=O)Cc2cc(Cl)cc(Cl)c2)CC1=O` [Example 212, (S)-3-cyclohexyl-2-(4-(3,5-dichlorobenzylsulfonyl)-2-oxopiperazin-1-yl)-N-(thiazol-2-yl)propanamide], for which the EC50 fell in the range of 1.58 to 2.51 µM. The Emax under setting [1] is 74.1 to 97%.
For `O=C(Nc1nccs1)[C@H](CC1CCCCC1)N1CCN(C(=O)Nc2cccc3ccccc23)CC1=O` [Example 77, (S)-4-(3-cyclohexyl-1-oxo-1-(thiazol-2-ylamino)propan-2-yl)-N-(naphthalen-1-yl)-3-oxopiperazine-1-carboxamide] the same measures were not below 3.16 µM and 74.1 to 97%.
Taken in the same sequence, the figures for `O=C(Nc1nccs1)[C@H](CC1CCCCC1)N1CCN(S(=O)(=O)c2csc3ccccc23)CC1=O` [Example 50, (S)-2-(4-(benzo[b]thiophen-3-ylsulfonyl)-2-oxopiperazin-1-yl)-3-cyclohexyl-N-(thiazol-2-yl)propanamide] were 0.794 to 1.26 µM and not above 74%.
As for `CC(C)S(=O)(=O)N1CCN([C@@H](CC2CCCCC2)C(=O)Nc2nccs2)C(=O)C1` [Example 59, (S)-3-cyclohexyl-2-(4-(isopropylsulfonyl)-2-oxopiperazin-1-yl)-N-(thiazol-2-yl)propanamide], the EC50 is 1.58 to 2.51 µM. For the same compound, under setting [1], the Emax is not below 119%.
With `O=C(Nc1nccs1)[C@H](CC1CCCCC1)N1CCN(S(=O)(=O)c2cccc3cccnc23)CC1=O` [Example 40, (S)-3-cyclohexyl-2-(2-oxo-4-(quinolin-8-ylsulfonyl)piperazin-1-yl)-N-(thiazol-2-yl)propanamide], the EC50 is 0.794 to 1.26 µM. Also, the Emax under setting [1] is 108 to 119%.
As to `O=C(Nc1nccs1)[C@H](CC1CCCCC1)N1CCN(S(=O)(=O)C2CCCCC2)CC1=O` [Example 227], the EC50 was not above 0.631 µM. Besides, the Emax under setting [1] is not below 119%.
Regarding `O=C(Nc1nccs1)[C@H](CC1CCCCC1)N1CCN(S(=O)(=O)C2CC2)CC1=O` [Example 2, (S)-3-cyclohexyl-2-(4-(cyclopropylsulfonyl)-2-oxopiperazin-1-yl)-N-(thiazol-2-yl)propanamide], the EC50 is not above 0.631 µM. Besides, under setting [1], the “% ACTmax” value is on record as 107.5-119.0%.
As to `CCc1ccc(S(=O)(=O)N2CCN([C@@H](CC3CCCCC3)C(=O)Nc3nccs3)C(=O)C2)cc1` [Example 225, (S)-3-cyclohexyl-2-(4-(4-ethylphenylsulfonyl)-2-oxopiperazin-1-yl)-N-(thiazol-2-yl)propanamide], the EC50 lay in the range of 0.794 to 1.26 µM. Moreover, the Emax under setting [1] was 97.1 to 107%.
Taken in the same sequence, the figures for `O=C(Nc1nccs1)[C@H](CC1CCCCC1)N1CCN(S(=O)(=O)c2ccc(F)c(Cl)c2)CC1=O` [Example 177, (S)-2-(4-(3-chloro-4-fluorophenylsulfonyl)-2-oxopiperazin-1-yl)-3-cyclohexyl-N-(thiazol-2-yl)propanamide] were 1.58 to 2.51 µM and 74.1 to 97%.
For `O=C(Nc1nccs1)[C@H](CC1CCCCC1)N1CCN(S(=O)(=O)Cc2ccc(F)cc2)CC1=O` [Example 68, (S)-3-cyclohexyl-2-(4-(4-fluorobenzylsulfonyl)-2-oxopiperazin-1-yl)-N-(thiazol-2-yl)propanamide], the EC50 was 0.794 to 1.26 µM. For the same compound, the Emax under setting [1] was 97.1 to 107%.
Taken in the same sequence, the figures for `CCN(CC)CCCNC(=S)N1CCN([C@@H](CC2CCCCC2)C(=O)Nc2nccs2)C(=O)C1` [Example 133, (S)-3-cyclohexyl-2-(4-(3-(diethylamino)propylcarbamothioyl)-2-oxopiperazin-1-yl)-N-(thiazol-2-yl)propanamide] were 0.794 to 1.26 µM and 97.1 to 107%.
As for `O=C(Nc1nccs1)[C@H](CC1CCCCC1)N1CCN(S(=O)(=O)Cc2ccccc2)CC1=O` [Example 41, (S)-2-(4-(benzylsulfonyl)-2-oxopiperazin-1-yl)-3-cyclohexyl-N-(thiazol-2-yl)propanamide], the EC50 was not above 0.631 µM. The Emax under setting [1] is 97.1 to 107%.
For the compound `O=C(Nc1nccs1)[C@H](CC1CCCCC1)N1CCN(C(=O)Nc2ccc3c(c2)OCCO3)CC1=O` [Example 145, (S)-4-(3-cyclohexyl-1-oxo-1-(thiazol-2-ylamino)propan-2-yl)-N-(2,3-dihydrobenzo[b][1,4]dioxin-6-yl)-3-oxopiperazine-1-carboxamide], the EC50 is not below 3.16 µM. The Emax under setting [1] is 74.1 to 97%.
In the case of `N#Cc1ccc(NC(=O)N2CCN([C@@H](CC3CCCCC3)C(=O)Nc3nccs3)C(=O)C2)cc1` [Example 132, (S)-N-(4-cyanophenyl)-4-(3-cyclohexyl-1-oxo-1-(thiazol-2-ylamino)propan-2-yl)-3-oxopiperazine-1-carboxamide], the EC50 is not below 3.16 µM. In addition, the Emax under setting [1] is not above 74%.
Taken in the same sequence, the figures for `Cc1nc(S(=O)(=O)N2CCN([C@@H](CC3CCCCC3)C(=O)Nc3nccs3)C(=O)C2)cn1C` [Example 48, (S)-3-cyclohexyl-2-(4-(1,2-dimethyl-1H-imidazol-4-ylsulfonyl)-2-oxopiperazin-1-yl)-N-(thiazol-2-yl)propanamide] were 0.794 to 1.26 µM and 108 to 119%.
On to `Cc1c(Cl)cccc1S(=O)(=O)N1CCN([C@@H](CC2CCCCC2)C(=O)Nc2nccs2)C(=O)C1` [Example 51, (S)-2-(4-(3-chloro-2-methylphenylsulfonyl)-2-oxopiperazin-1-yl)-3-cyclohexyl-N-(thiazol-2-yl)propanamide], for which the EC50 is 1.58 to 2.51 µM. In addition, the Emax under setting [1] is 74.1 to 97%.
In the case of `O=C(Nc1nccs1)[C@H](CC1CCCCC1)N1CCN(S(=O)(=O)CCC(F)(F)F)CC1=O` [Example 100, (S)-3-cyclohexyl-2-(2-oxo-4-(3,3,3-trifluoropropylsulfonyl)piperazin-1-yl)-N-(thiazol-2-yl)propanamide], the EC50 was in the range of 0.794 to 1.26 µM. The Emax under setting [1] is not below 119%.
Taken in the same sequence, the figures for `O=C(Nc1ncc(Cl)s1)C(CC1CCOCC1)N1CCN(S(=O)(=O)C2CC2)CC1=O` (stereo not shown) [Example 23, N-(5-chlorothiazol-2-yl)-2-(4-(cyclopropylsulfonyl)-2-oxopiperazin-1-yl)-3-(tetrahydro-2H-pyran-4-yl)propanamide] were 1.58 to 2.51 µM and not below 119%.
As for `O=C(Nc1nccs1)[C@H](CC1CCCCC1)N1CCN(S(=O)(=O)c2cc(Cl)ccc2F)CC1=O` [Example 185, (S)-2-(4-(5-chloro-2-fluorophenylsulfonyl)-2-oxopiperazin-1-yl)-3-cyclohexyl-N-(thiazol-2-yl)propanamide], the EC50 is not above 0.631 µM. Also, under setting [1], the Emax is not below 119%.
